Biological target: T1, mouse Tas2r144 (Mus musculus, UniProt Q7TQB8)
T1 construct: expressed in transfected cells; host or cells: HEK293T-Gα16gust44
Test: Calcium imaging assay (FLIPR), HEK293T-Gα16gust44 cells transfected with mouse Tas2r144
Type: cell-based
Settings: for Δ F/F: Tas2r144
Procedure: This set of bile acids was chosen because of their commercial availability in high purities, their diversity within the class of bile acids and their previous detection and quantitation in human blood. Stock solutions were prepared in DMSO.
As basal growth medium for the HEK293T-Gα16gust44 cell line[17],[59] served Dulbecco’s modified eagle medium (DMEM) (Thermo Fisher Scientific, Darmstadt, Germany) supplemented with 10 % fetal bovine serum (Sigma-Aldrich, Steinheim, Germany), 2 mM L-glutamine (Sigma-Aldrich, Steinheim, Germany), 100 units/ml penicillin (Sigma Aldrich, Steinheim, Germany) and 100 µg/ml streptomycin (Sigma Aldrich, Steinheim, Germany). Growth conditions were 37 °C, 5 % CO2 and saturated air-humidity[60].
HEK293T-Gα16gust44 cells were seeded on poly-D-lysine (10 µg/ml) coated 96-well plates to reach a confluence of 40-60 % the next day. For transient transfection 150 ng of plasmid DNA containing the receptor of interest and 0.3 µl lipofectamine 2000 (Thermo Fisher Scientific, Darmstadt, Germany) per well were used and transfection took place according to the manual of lipofectamine 2000. […] The empty vector DNA (mock) was transfected as negative control[14],[41].
Cells were loaded using the calcium-sensitive fluorescent dye Fluo-4-AM (Abcam, Cambridge, Great Britain) in the presence of 2.5 mM probenecid (Sigma-Aldrich, Steinheim, Germany) the day after transfection[13],[41]. 1 h after loading, cells were washed with C1 buffer using a BioTek Cell Washer, incubated in the dark for half an hour and washed again. For automated agonist application and measurement of fluorescence changes, a FLIPR^TETRA device (Molecular Devices, San José, United States) was used. Viability of cells was tested by application of 100 nM Somatostatin 14 (Bachem, Bubendorf, Switzerland)[42].
Measured data were negative control corrected by subtracting the signal of the mock-transfected cells and exported to Microsoft Excel using the FLIPR software ScreenWorks 4.2. In Microsoft Excel software, standardization of maximum fluorescence intensities to the basal fluorescence and normalization to the buffer-only control was done to calculate the relative fluorescence changes (ΔF/F).
Initial screening experiments performed in duplicate wells were confirmed by at least one replication and representative traces were selected for display. All dose-response relationships were determined by three independent experiments (biological replicates) performed in duplicates (technical replicates). Threshold concentrations, defined as lowest substance concentrations leading to statistically significant elevated fluorescence changes in receptor-transfected cells compared with empty vector-transfected cells, were determined using SigmaPlot with Student’s t-test to evaluate statistical significance (p < 0.01).

T1 sequence (Q7TQB8 whole entry): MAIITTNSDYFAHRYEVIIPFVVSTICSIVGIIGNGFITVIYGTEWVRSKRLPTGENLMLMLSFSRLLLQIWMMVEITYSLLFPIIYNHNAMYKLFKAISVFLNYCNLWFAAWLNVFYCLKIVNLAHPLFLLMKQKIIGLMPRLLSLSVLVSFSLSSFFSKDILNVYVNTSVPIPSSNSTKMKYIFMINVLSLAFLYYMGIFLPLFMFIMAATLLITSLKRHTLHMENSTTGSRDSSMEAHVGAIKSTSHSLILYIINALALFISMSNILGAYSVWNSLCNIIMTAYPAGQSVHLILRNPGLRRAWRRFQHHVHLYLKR

Δ F/F (conc. 0,01 mM): 0.007151 | Δ F/F (conc. 0,1 mM): 0.04043 | Δ F/F (conc. 0,03 mM): 0.015 | Δ F/F (conc. 0,3 mM): 0.08047 | Δ F/F (conc. 0,003 mM): 0.00267 | RLU (Time 0 s): 0 RLU | RLU (Time 2 s): -31.2125 RLU | RLU (Time 4 s): -43.6447 RLU | RLU (Time 6 s): -0.4257 RLU | RLU (Time 8 s): -5.711 RLU | RLU (Time 12 s): -13.8091 RLU | RLU (Time 14 s): -0.4257 RLU | RLU (Time 16 s): -0.5597 RLU | RLU (Time 18 s): 10.0299 RLU | RLU (Time 18.781 s): -3.913 RLU | RLU (Time 20.781 s): -28.6004 RLU | RLU (Time 22.781 s): -59.2077 RLU | RLU (Time 24.781 s): -17.5148 RLU | RLU (Time 26.781 s): 37.2224 RLU | RLU (Time 28.781 s): 99.9904 RLU | RLU (Time 30.781 s): 135.498 RLU | RLU (Time 32.781 s): 202.624 RLU | RLU (Time 34.781 s): 240.201 RLU | RLU (Time 36.781 s): 276.718 RLU | RLU (Time 38.781 s): 320.611 RLU | RLU (Time 40.781 s): 324.075 RLU | RLU (Time 42.781 s): 335.112 RLU | RLU (Time 44.781 s): 371.949 RLU | RLU (Time 46.781 s): 375.35 RLU | RLU (Time 48.781 s): 395.668 RLU | RLU (Time 50.781 s): 393.283 RLU | RLU (Time 52.781 s): 432.603 RLU | RLU (Time 54.781 s): 444.104 RLU | RLU (Time 56.781 s): 419.562 RLU | RLU (Time 58.781 s): 425.176 RLU | RLU (Time 60.781 s): 431.497 RLU | RLU (Time 62.781 s): 417.317 RLU | RLU (Time 64.781 s): 465.061 RLU | RLU (Time 66.781 s): 447.834 RLU | RLU (Time 68.781 s): 427.827 RLU | RLU (Time 70.781 s): 415.079 RLU | RLU (Time 72.781 s): 432.914 RLU | RLU (Time 74.781 s): 450.52 RLU | RLU (Time 76.781 s): 421.617 RLU | RLU (Time 78.781 s): 441.46 RLU | RLU (Time 80.781 s): 426.566 RLU | RLU (Time 82.781 s): 423.408 RLU | RLU (Time 84.781 s): 393.748 RLU | RLU (Time 86.781 s): 429.403 RLU | RLU (Time 88.781 s): 405.471 RLU | RLU (Time 90.781 s): 401.169 RLU | RLU (Time 92.781 s): 422.993 RLU | RLU (Time 94.781 s): 401.134 RLU | RLU (Time 96.781 s): 381.14 RLU | RLU (Time 98.781 s): 357.346 RLU | RLU (Time 100.781 s): 380.46 RLU | RLU (Time 102.781 s): 368.041 RLU | RLU (Time 104.781 s): 369.437 RLU | RLU (Time 106.781 s): 355.75 RLU | RLU (Time 108.781 s): 354.221 RLU | RLU (Time 110.781 s): 346.013 RLU | RLU (Time 112.781 s): 352.628 RLU | RLU (Time 114.781 s): 328.654 RLU | RLU (Time 116.781 s): 301.02 RLU | RLU (Time 118.781 s): 305.388 RLU | RLU (Time 120.781 s): 301.126 RLU | RLU (Time 122.781 s): 277.354 RLU | RLU (Time 124.781 s): 278.403 RLU | RLU (Time 126.781 s): 268.257 RLU | RLU (Time 128.781 s): 264.093 RLU | RLU (Time 130.781 s): 273.404 RLU | RLU (Time 132.781 s): 241.449 RLU | RLU (Time 134.781 s): 241.405 RLU | RLU (Time 136.781 s): 246.641 RLU | RLU (Time 137.562 s): 213.654 RLU | RLU (Time 143.562 s): 221.818 RLU | RLU (Time 149.562 s): 207.299 RLU | RLU (Time 155.562 s): 180.281 RLU | RLU (Time 161.562 s): 165.822 RLU | RLU (Time 167.562 s): 177.105 RLU | RLU (Time 173.562 s): 151.305 RLU | RLU (Time 179.562 s): 140.777 RLU | RLU (Time 185.562 s): 121.278 RLU | RLU (Time 191.562 s): 122.229 RLU | RLU (Time 197.562 s): 118.034 RLU | RLU (Time 203.562 s): 110.818 RLU | RLU (Time 209.562 s): 87.4457 RLU | RLU (Time 215.562 s): 107.926 RLU | RLU (Time 221.562 s): 45.9427 RLU | RLU (Time 227.562 s): 30.7626 RLU | RLU (Time 233.562 s): 60.9884 RLU | RLU (Time 239.562 s): 58.9568 RLU | RLU (Time 245.562 s): 54.3153 RLU | RLU (Time 293.562 s): 51.7559 RLU | RLU (Time 299.562 s): 74.5788 RLU | RLU (Time 305.562 s): 55.2043 RLU | RLU (Time 311.562 s): 49.25 RLU | RLU (Time 317.562 s): 60.65 RLU | RLU (Time 323.562 s): 55.6278 RLU | RLU (Time 329.562 s): 55.0836 RLU | RLU (Time 335.562 s): 69.3242 RLU | RLU (Time 341.562 s): 66.607 RLU | RLU (Time 347.562 s): 79.0246 RLU | RLU (Time 353.562 s): 84.7807 RLU | RLU (Time 359.562 s): 64.803 RLU | Activation threshold concentration Tas2r144 (p < 0.01 vs empty vector): 100 µM
SMILES: C[C@H](CCC(=O)NCC(=O)O)[C@H]1CC[C@H]2[C@@H]3[C@H](O)C[C@@H]4C[C@H](O)CC[C@]4(C)[C@H]3C[C@H](O)[C@]12C [Glycocholic Acid, glycocholic acid]
